From patent US12497408B2, “Tetracyclic compounds and methods for the treatment of Zika virus infection” (priority 2021, dated 2025)

The compounds below were run on ZIKV (assay: ZIKV reporter virus-based antiviral screening on Huh7 cells). Details: Zika virus, Huh-7, 48 h, Huh7 cells infected with recombinant luciferase reporter ZIKV (MOI about 0.1), luciferase signal.
Assay type: cell-based, Zika virus
Source text: Protocol for ZIKV reporter virus-based antiviral screening on Huh7 cells:
• Human hepatocyte-derived carcinoma cell line (Huh7) 2. Reagents • ViviRen™ Live Cell Substrate (Promega, Cat #E6492) or Nano Glo assay system (Promega: N1130) • White opaque 96-well TC-treated microplates (Corning, Cat #3916) • 96-well Clear V-Bottom TC-treated Microplate (Corning, Cat #3894) • Complete cell culture media: DMEM (Gibco, Cat #10569) supplemented with 10% FBS (HyClone, Cat #SH30071.03IH25-40)+1% MEM Non-Essential Amino Acids Solution 100×(Gibco, Cat #11140050)+1% Penicillin-Streptomycin (10,000 U/mL) (Gibco, Cat #15140122). • Assay media: DMEM media (Gibco, Cat #31053028) supplemented with 2% FBS, 2% GlutaMAX™ Supplement (Gibco Cat #35050061), 1% Sodium Pyruvate solution (Gibco, Cat #11360070), 1% MEM Non-Essential Amino Acids Solution 100× and 1% Penicillin-Streptomycin (10,000 U/mL). • Trypsin-EDTA solution (Gibco, Cat #25200056) 3. Virus • Recombinant ZIKV strain with Renilla luciferase gene (strain FSS-Rlu) or Nano luciferase gene (Strain PRV-Nano, Dakar-Nano) 4. Instruments • BioTek Cytation 5 or other plate-readers for chemiluminescence detection model. • Eppendorf plate centrifuge • Plate shaker • Eppendorf multichannel pipettes Procedures Day 1: Preparation of Cells • Human hepatocyte-derived carcinoma cell line (Huh7) cells were detached from a T-175 flask by using a Trypsin-EDTA solution. The detached cells were suspended in complete culture media in a sterile 50-ml conical tube. • The 50-ml conical tube was centrifuged at 1200×rpm for 3 min at room temperature. • The cells were resuspended in assay media. The cell numbers were counted, and the cells diluted to a density of 3×10^5 cells/ml. • The cells were plated at 50 μl cells per well in White opaque 96-well plates (assay plates). Gently shake the plates to ensure cells to attach to the plate evenly. • The plated cells were incubated in a humidified incubator (37° C. with 5% CO2). Day 2: Infection • 1) Nine serial (2-fold or 3-fold) concentrated compounds were prepared using 90% DMSO solution and DMSO controls in a clear V-bottom 96-well plate (compound plate). • For example:
• 2) The reporter virus stock was diluted to a concentration of 3×10^4 FFU (FFU: focus-forming unit)/ml using the assay media. 200 μl diluted virus per well was aliquoted into a clear V-bottom 96-well plate (mixing plate). • 3) 1 μl above 400×concentrated compound dilutions was added from the compound plate to each well of the mixing plate. The plates were shaken on a plate shaker for 5 min. • 4) 50 μl compound-virus mixture was added into each well of the assay plates (the MOI is about 0.1). The plates were shaken gently by mixing the virus evenly. • An example of the format for assay plate:
• control. • 5) The plates were centrifuged at 1000 rpm for 15 s. • 6) The plates were incubated at 37° C. with 5% CO2 in a humidified incubator for 48 hrs. Day 4: Read Luciferase Signals • 7) The ViviRen™ Live Cell Substrate was diluted in assay media for 3000× folds. 25 μl of diluted substrates was added into each well of the assay plates. • For Nano-Glo assay system, 50 μl diluted substrates (50×fold diluted from the stock in assay buffer) were added. • 8) The plates were incubated at room temperature for 5 min. • 9) Optimally, cell viability is measured using the Promega Cell-titer Glo kit (only used when ZIKV-Rlu was used for infection). • 10) Luciferase signals were read using the Cytation 5 with gain value of 120-150. Data Analysis • a. The luciferase signals from DMSO-treated groups (un-treated controls) were set as 100%. The relative luciferase signals were obtained by normalizing the luciferase signals from each dilution-treated group to that of the controls. • b.
Work on `COC(=O)N[C@H](C(=O)N1C[C@@H](OC)C[C@H]1c1nc(Cl)c(-c2cc3c4c(c2)OCc2cc(-c5[nH]c([C@@H]6C[C@H](OC)CN6C(=O)[C@@H](NC(=O)OC)C(C)C)nc5Cl)cc(c2-4)OC3)[nH]1)C(C)C` [Compound 4, dimethyl ((2S,2′S)-((3S,3′S,5S,5′S)-((5,10-dihydrochromeno[5,4,3-cde]chromene-2,7-diyl)bis(4-chloro-1H-imidazole-5,2-diyl))bis(3-methoxypyrrolidine-5,1-diyl))bis(3-methyl-1-oxobutane-1,2-diyl))dicarbamate] yielded an EC50 of 19.2 nM. With `C=C(C)c1nc([C@@H]2C[C@H](C)CN2C(=O)[C@@H](NC(=O)OC)C(C)C)[nH]c1-c1cc2c3c(c1)OCc1cc(-c4[nH]c([C@@H]5C[C@H](C)CN5C(=O)[C@@H](NC(=O)OC)C(C)C)nc4C(=C)C)cc(c1-3)OC2` [Compound 71, dimethyl ((2S,2′S)-((3S,3′S,5S,5′S)-((5,10-dihydrochromeno[5,4,3-cde]chromene-2,7-diyl)bis(4-(prop-1-en-2-yl)-1H-imidazole-5,2-diyl))bis(3-methylpyrrolidine-5,1-diyl))bis(3-methyl-1-oxobutane-1,2-diyl))dicarbamate] the EC50 was 36.4 nM. `COC(=O)N[C@H](C(=O)N1[C@@H](C)CC[C@H]1c1nc(Cl)c(-c2cc3c4c(c2)OCc2cc(-c5[nH]c([C@@H]6CC[C@H](C)N6C(=O)[C@@H](NC(=O)OC)C(C)C)nc5Cl)cc(c2-4)OC3)[nH]1)C(C)C` [Compound 74, dimethyl ((2S,2′S)-((2S,2′S, 5S,5′S)-((5,10-dihydrochromeno[5,4,3-cde]chromene-2,7-diyl)bis(4-chloro-1H-imidazole-5,2-diyl))bis(2-methylpyrrolidine-5,1-diyl))bis(3-methyl-1-oxobutane-1,2-diyl))dicarbamate] showed an EC50 of 2 nM. `COC(=O)N[C@H](C(=O)N1C[C@H](C)C[C@H]1c1nc(Cl)c(-c2cc3c4c(c2)OCc2cc(-c5[nH]c([C@@H]6C[C@@H](C)CN6C(=O)[C@@H](NC(=O)OC)C(C)(C)C(F)(F)F)nc5Cl)cc(c2-4)OC3)[nH]1)C(C)(C)C(F)(F)F` [Compound 3, dimethyl ((2S,2′S)-((3R,3′R,5S,5′S)-((5,10-dihydrochromeno[5,4,3-cde]chromene-2,7-diyl)bis(4-chloro-1H-imidazole-5,2-diyl))bis(3-methylpyrrolidine-5,1-diyl))bis(4,4,4-trifluoro-3,3-dimethyl-1-oxobutane-1,2-diyl))dicarbamate] showed an EC50 of 5.2 nM. Compound `COC(=O)N[C@H](C(=O)N1[C@H](c2nc(Cl)c(-c3cc4c5c(c3)OCc3cc(-c6[nH]c([C@@H]7C[C@@H]8CCC[C@@H]8N7C(=O)[C@@H](NC(=O)OC)C(C)(C)C(F)(F)F)nc6Cl)cc(c3-5)OC4)[nH]2)C[C@@H]2CCC[C@@H]21)C(C)(C)C(F)(F)F` [Compound 35, dimethyl ((2S,2′S)-((2S,2′S,3aS,3a′S,6aS,6a′S)-((5,10-dihydrochromeno[5,4,3-cde]chromene-2,7-diyl)bis(4-chloro-1H-imidazole-5,2-diyl))bis(hexahydrocyclopenta[b]pyrrole-2,1(2H)-diyl))bis(4,4,4-trifluoro-3,3-dimethyl-1-oxobutane-1,2-diyl))dicarbamate] has an EC50 of 4.5 nM. Work on `COC(=O)N[C@H](C(=O)N1C[C@@H](F)C[C@H]1c1nc(Cl)c(-c2cc3c4c(c2)OCc2cc(-c5[nH]c([C@@H]6C[C@H](F)CN6C(=O)[C@@H](NC(=O)OC)C(C)C)nc5Cl)cc(c2-4)OC3)[nH]1)C(C)C` [Compound 50, dimethyl ((2S,2′S)-((3S,3′S,5S,5′S)-((5,10-dihydrochromeno[5,4,3-cde]chromene-2,7-diyl)bis(4-chloro-1H-imidazole-5,2-diyl))bis(3-fluoropyrrolidine-5,1-diyl))bis(3-methyl-1-oxobutane-1,2-diyl))dicarbamate] yielded an EC50 of 240 nM. `COC(=O)N[C@H](C(=O)N1C[C@H](C)C[C@H]1c1nc(Cl)c(-c2cc3c4c(c2)OCc2cc(-c5[nH]c([C@@H]6C[C@@H](C)CN6C(=O)[C@@H](NC(=O)OC)C(C)C)nc5Cl)cc(c2-4)OC3)[nH]1)C(C)C` [Compound 1, dimethyl ((2S,2′S)-((3R,3′R,5S,5′S)-((5,10-dihydrochromeno[5,4,3-cde]chromene-2,7-diyl)bis(4-chloro-1H-imidazole-5,2-diyl))bis(3-methylpyrrolidine-5,1-diyl))bis(3-methyl-1-oxobutane-1,2-diyl))dicarbamate] was tested, and the EC50 was 4.2 nM. With `COC(=O)N[C@H](C(=O)N1C[C@H](F)C[C@H]1c1nc(Cl)c(-c2cc3c4c(c2)OCc2cc(-c5[nH]c([C@@H]6C[C@@H](F)CN6C(=O)[C@@H](NC(=O)OC)C(C)C)nc5Cl)cc(c2-4)OC3)[nH]1)C(C)C` [Compound 53, dimethyl ((2S,2′S)-((3R,3′R,5S,5′S)-((5,10-dihydrochromeno[5,4,3-cde]chromene-2,7-diyl)bis(4-chloro-1H-imidazole-5,2-diyl))bis(3-fluoropyrrolidine-5,1-diyl))bis(3-methyl-1-oxobutane-1,2-diyl))dicarbamate] the EC50 was 7.3 nM. With `COC(=O)N[C@H](C(=O)N1C[C@@H](C)C[C@H]1c1nc(Cl)c(-c2cc3c4c(c2)OCc2cc(-c5[nH]c([C@@H]6C[C@H](C)CN6C(=O)[C@@H](NC(=O)OC)C(C)C)nc5Br)cc(c2-4)OC3)[nH]1)C(C)C` [Compound 69, methyl ((S)-1-((2S,4S)-2-(4-bromo-5-(7-(4-chloro-2-((2S,4S)-1-((methoxycarbonyl)-L-valyl)-4-methylpyrrolidin-2-yl)-1H-imidazol-5-yl)-5,10-dihydrochromeno[5,4,3-cde]chromen-2-yl)-1H-imidazol-2-yl)-4-methylpyrrolidin-1-yl)-3-methyl-1-oxobutan-2-yl)carbamate] the EC50 was 11.6 nM. With `COC[C@H]1C[C@@H](c2nc(Cl)c(-c3cc4c5c(c3)OCc3cc(-c6[nH]c([C@@H]7C[C@H](COC)CN7C(=O)[C@@H](NC(=O)OC)C(C)C)nc6Cl)cc(c3-5)OC4)[nH]2)N(C(=O)[C@@H](NC(=O)OC)C(C)C)C1` [Compound 45, dimethyl ((2S,2′S)-((3S,3′S,5S,5′S)-((5,10-dihydrochromeno[5,4,3-cde]chromene-2,7-diyl)bis(4-chloro-1H-imidazole-5,2-diyl))bis(3-(methoxymethyl)pyrrolidine-5,1-diyl))bis(3-methyl-1-oxobutane-1,2-diyl))dicarbamate] the EC50 was 19.3 nM. Compound `COC(=O)N[C@H](C(=O)N1CC2(CC2)C[C@H]1c1nc(Cl)c(-c2cc3c4c(c2)OCc2cc(-c5[nH]c([C@@H]6CC7(CC7)CN6C(=O)[C@@H](NC(=O)OC)C(C)C)nc5C(C)C)cc(c2-4)OC3)[nH]1)C(C)C` [Compound 15, methyl ((S)-1-((S)-6-(5-(7-(4-chloro-2-((S)-5-((methoxycarbonyl)-L-valyl)-5-azaspiro[2.4]heptan-6-yl)-1H-imidazol-5-yl)-5,10-dihydrochromeno[5,4,3-cde]chromen-2-yl)-4-isopropyl-1H-imidazol-2-yl)-5-azaspiro[2.4]heptan-5-yl)-3-methyl-1-oxobutan-2-yl)carbamate] has an EC50 of 3.7 nM. Work on `COC(=O)N[C@H](C(=O)N1[C@H](c2nc(Cl)c(-c3cc4c5c(c3)OCc3cc(-c6[nH]c([C@@H]7C[C@@H]8CCCC[C@@H]8N7C(=O)[C@@H](NC(=O)OC)C(C)(C)C(F)(F)F)nc6Cl)cc(c3-5)OC4)[nH]2)C[C@@H]2CCCC[C@@H]21)C(C)(C)C(F)(F)F` [Compound 38, dimethyl ((2S,2′S)-((2S,2′S,3aS,3a′S,7aS,7a′S)-((5,10-dihydrochromeno[5,4,3-cde]chromene-2,7-diyl)bis(4-chloro-1H-imidazole-5,2-diyl))bis(octahydro-1H-indole-2,1-diyl))bis(4,4,4-trifluoro-3,3-dimethyl-1-oxobutane-1,2-diyl))dicarbamate] yielded an EC50 of 25.6 nM.
